Here are results for one compound from ChEMBL document CHEMBL5584343, “Cerastecin Inhibition of the Lipooligosaccharide Transporter MsbA to Combat Acinetobacter baumannii: From Screening Impurity to In Vivo Efficacy” (J Med Chem, 2024).

In data set [1] the test system is Acinetobacter baumannii. Kind of data set: Antibacterial activity against Acinetobacter baumannii ATCC19606 assessed as bacterial growth inhibition incubated for 18 to 20 hrs by microbroth dilution method. It counts as functional. The conditions noted are these: time 18-20 hrs.
Data set [2] can be described thus: Cytotoxicity against GFP fused human MT4 cells cultured under serum free condition for 24 hrs by CellTiter-Glo assay. In kind it is toxicity, cell-based. Conditions: GFP fused MT4 cells.
A short description of data set [3]: Inhibition of wildtype Acinetobacter baumannii MsbA preincubated for 30 mins followed by ATP addition and measured after 1 hrs by Transcreener ADP2 F1 assay.
Data set [4] in a line: Plasma protein binding in C57BL/6 mouse at 1000 to 100000 ng/ml by equilibrium dialysis based LC-MS/MS analysis. In kind it is ADME, cell-free. The conditions noted are these: dose 1000-100000 ng/ml, read-out: PPB (converted).
The test system of data set [5] is Acinetobacter baumannii. Nature of the data set: Antibacterial activity against Acinetobacter baumannii ATCC19606 incubated for 18 to 20 hrs in presence of 10% human serum by microbroth dilution method. In kind it is functional. The conditions noted are these: time 18-20 hrs.
For data set [6], the system named is Acinetobacter baumannii. Nature of the data set: Selectivity ratio of MIC95 for antibacterial activity against Acinetobacter baumannii ATCC19606 in the presence of 10% human serum to MIC95 for antibacterial activity against Acinetobacter baumannii ATCC19606. In kind it is functional.
Data set [7] in a line: AUC (0 to infinity) in male C57BL/6 mouse at 300 mg/kg, sc administered once in a day and measured after 24 hrs by LC-MS/MS analysis. The conditions noted are these: mouse, in vivo, sc, 300 mg/kg, 24 h. In kind it is ADME, organism-based.
Data set [8] in a line: AUC (0 to infinity) in male C57BL/6 mouse at 300 mg/kg, sc administered 3 times a day with 3 hrs interval and measured after 24 hrs by LC-MS/MS analysis. In kind it is ADME, organism-based. The conditions noted are these: mouse, in vivo, sc, 300 mg/kg, 24 h.
The nature of data set [9]: Cmax in male C57BL/6 mouse at 300 mg/kg, sc administered once in a day and measured after 24 hrs by LC-MS/MS analysis. It counts as ADME, organism-based. The conditions noted are these: in vivo.
A short description of data set [10]: Cmax in male C57BL/6 mouse at 300 mg/kg, sc administered 3 times a day with 3 hrs interval and measured after 24 hrs by LC-MS/MS analysis. The conditions noted are these: in vivo. In kind it is ADME, organism-based.
Data set [11] in a line: Plasma protein binding in human at 1000 to 100000 ng/ml by equilibrium dialysis based LC-MS/MS analysis. In kind it is ADME, cell-free. The conditions noted are these: dose 1000-100000 ng/ml, read-out: PPB (converted).
Data set [12] in a line: Plasma protein binding in dog at 1000 to 100000 ng/ml by equilibrium dialysis based LC-MS/MS analysis. In kind it is ADME, cell-free, Canis lupus familiaris. Conditions: dose 1000-100000 ng/ml, read-out: PPB (converted).
For data set [13], the system named is Acinetobacter baumannii. Kind of data set: Antibacterial activity against Acinetobacter baumannii CLB21655 infected in female DBA mouse blood stream infection model assessed as fold change in colony forming units in spleen at 300 mg/kg, sc pre-infected with bacteria for 0.5 hrs followed by once daily compound administration and measured after 8 hrs relative to control. It counts as functional.

Data set [14] concerns Acinetobacter baumannii. Kind of data set: Antibacterial activity against Acinetobacter baumannii CLB21655 infected in female DBA mouse lung infection model assessed as fold change in colony forming units in lung at 300 mg/kg, sc pre-infected with bacteria for 2 hrs followed by thrice daily compound administration with 6 hrs interval and measured after 24 hrs relative to control. It counts as functional.

Data set [15] deals with Acinetobacter baumannii. Nature of the data set: Antibacterial activity against Acinetobacter baumannii ATCC19606 incubated for 18 to 20 hrs in presence of 50% mouse serum by microbroth dilution method. It counts as functional. Conditions: time 18-20 hrs.
In data set [16] the test system is Acinetobacter baumannii. Kind of data set: Antibacterial activity against Acinetobacter baumannii CLB21655 infected in female DBA mouse blood stream infection model assessed as reduction in bacterial burden in spleen at 300 mg/kg, sc pre-infected with bacteria for 0.5 hrs followed by once daily compound administration and measured after 8 hrs (reference value: 6.5 log10CFU/g). It counts as functional.

Data set [17] has as its system Acinetobacter baumannii. Nature of the data set: Antibacterial activity against Acinetobacter baumannii CLB21655 infected in female DBA mouse lung infection model assessed as reduction in bacterial burden in lung at 300 mg/kg, sc pre-infected with bacteria for 2 hrs followed by thrice daily compound administration with 6 hrs interval and measured after 24 hrs (reference value: 6.3 log10CFU/g). In kind it is functional.

In brackets after ≈: the same amount, converted by molar mass.

For the compound `O=C(O)c1cc(CN2CC(Oc3ccc(NS(=O)(=O)c4cnn(-c5ccc(F)cc5)c4)c(C(=O)O)c3)C2)ccc1NS(=O)(=O)c1cnn(-c2ccc(F)cc2)c1`, the values for the MIC95 in the data set on Acinetobacter baumannii [1], in the data set on Acinetobacter baumannii [5] and with Acinetobacter baumannii [15] were 0.277 µM (≈ 0.223 µg/mL), 6.25 µM and 50 µM, respectively. The same compound returned an EC50 at 24 h in [2] greater than 42000 nM. In addition, in data set [3], the EC50 is 69 nM. The fraction unbound in data set [4] is 0.002; in data set [11] it was 0.006; in data set [12], 0.004. The Selectivity ratio in the data set with Acinetobacter baumannii [6] was determined as 23. Moreover, the AUC in data set [7] came to 2270 µM·h; in data set [8], 22200 µM·h. Further, the Cmax was determined as 662 µM in data set [9] and 626 µM in data set [10]. The “fold change (FC)” value in the data set on Acinetobacter baumannii [13] was 3.2; in the data set on Acinetobacter baumannii [14], 1.9. Moreover, the Activity is reported as 3.3 log10CFU/g with Acinetobacter baumannii [16] and 4.4 log10CFU/g in the data set with Acinetobacter baumannii [17].
